Results taken from patent US9951035B2, “Selective matrix metalloproteinase inhibitors” (University of Notre Dame du Lac, priority 2014, dated 2018).
In brackets after ≈: the same amount, converted by molar mass.

Assays:
[1] = molecular target: MMP-9 (Homo sapiens (Human), UniProt P14780); conditions: at 50,000 nM; Gooyit et al. 2013; cited from earlier work
[2] = molecular target: MMP-2 (Homo sapiens (Human), UniProt P08253); conditions: literature / previously reported; cited from earlier work
[3] = test system: diabetic (db/db) mice; test: Mouse diabetic wound model; assay type: in vivo; conditions: for wound healing versus vehicle: 0.25 mg/wound/day; for wound healing versus vehicle / wound closure: db/db mice; for wound closure: 0.25 mg/wound/day topical
Excerpt: The excisional mouse diabetic model validated by Sullivan et al. was used (Sullivan et al., Plast. Reconstr. Surg. (2004) 113, 953-960). The procedure for inflicting the wounds (single 8 mm wound on the dorsal region) was the same as described previously (Gooyit et al., ACS Chem. Biol. (2014) 9, 505-510). Wounds were photographed and covered with a sterile 3M Tegaderm™ transparent dressing (Butler Schein Animal Health, Inc.).
Female diabetic db/db (BKS.Cg-Dock7m+/+Leprdb/J, 8-weeks old, 38±3 g, n=24) were used for this study. Wounds were inflicted as described. Treatment with the MMP-2 inhibitor (50 μL of 5.0 mg/mL in 80% propylene glycol/20% DMSO, equivalent to 0.25 mg per wound) or vehicle (50 μL of 80% propylene glycol/20% DMSO) was started one day after wound infliction and continued once a day for 14 days. Digital photographs of wounds were taken on days 0, 7, 10, and 14 while the animals were under isoflurane anesthesia. On day 14, all mice were sacrificed. The wounds were excised, embedded in optimal cutting temperature (OCT) compound, and cryosectioned for histological evaluation.
Female diabetic db/db (BKS.Cg-Dock7m+/+Leprdb/J, 8-weeks old, 38±3 g, n=24) were used for this study. Wounds were inflicted and the following day the wounds were treated topically with MMP-8 (50 μL of 20 μg/mL MMP-8 in reaction buffer) or vehicle (50 μL reaction buffer) once a day for 14 days. The reaction buffer consisted of 50 mM Tris (pH 7.5), 10 mM CaCl2, 150 mM NaCl, and 0.05% (w/v) Brij-35. Digital photographs of the wounds were taken on days 0, 7, 10, and 14 while animals were under isoflurane anesthesia. On days 7 and 14, 12 mice (n=6 per group) were sacrificed. The wounds were excised, embedded in OCT compound, and cryosectioned for histological evaluation.
Photographs were taken using the procedure described by Gooyit et al. (ACS Chem Biol. (2014) 9, 505-510) at a fixed distance above the wounds and calibrated using a ruler included in the photographic frame. Image J 1.48c software was used to calculate wound areas. The percentage of wound closure was calculated from the wound area on the specified day relative to that on day 0.
Fresh wound tissue was harvested and embedded in OCT compound. Subsequently, the tissue was cryosectioned for H&E staining (12-μm thickness) and for apoptosis assays and in-situ zymography (8-μm thickness). Re-epithelialization was assessed on a Nikon Eclipse 90i Fluorescent Microscope (Nikon Instruments Inc.) as described earlier (Tkalcevic et al., Toxicol. Pathol. (2009) 37, 183-192). Apoptosis was evaluated using Derma TACS™ Apoptosis detection kits (Trevigen, Inc.) according to the manufacturer's instructions. The protocol of in-situ zymography was adapted from known methods. Gelatinolytic activity was detected in unfixed cryostat sections using DQ-gelatin as a substrate. DQ-gelatin was prepared at a concentration of 20 μg/mL in Tris-buffered saline (TBS) buffer (50 mM TBS pH 7.6, 1 mM CaCl2). A general MMP inhibitor in 0.5 mM EDTA was prepared as a negative control. Cryostat sections were air-dried for 10 min and incubated in the substrate mixture in the presence and absence of EDTA for 1 hr at room temperature. After the incubation period, the slides were washed in PBS (three times, 5 min each), fixed with 4% paraformaldehyde in PBS for 10 min in the dark, washed again with PBS (three times, 5 min each), incubated in the dark for 5 min with 300 nM DAPI solution, and mounted with anti-quenching mounting medium. Fluorescence of FITC was detected with excitation at 460-500 nm and emission at 512-542 nm. DAPI was detected with excitation at 340-380 nm and emission at 425-∞ nm.
Data are expressed as mean±SD. Wound healing between the groups in the studies were analyzed for statistical significance using a paired Student t-test, where p<0.05 was considered statistically significant.

[4] = test system: non-diabetic wounds; conditions: rats, pigs, and humans; in words; cited from earlier work
[5] = molecular target: ADAM9 (Homo sapiens (Human), UniProt Q13443); test: Enzyme inhibition studies, ADAM9; assay type: biochemical
[6] = molecular target: ADAM10 (Homo sapiens (Human), UniProt O14672); test: Enzyme inhibition studies, ADAM10; assay type: biochemical
[7] = molecular target: MMP-7 (Homo sapiens (Human), UniProt P09237); conditions: at 250 μM; data from Gooyit et al. 2014; cited from earlier work
[8] = test system: non-diabetic wounds; test: Healing of non-diabetic wounds; assay type: in vivo, mice; conditions: in words
[9] = physchem; conditions: water, thermodynamic from solid
[10] = molecular target: MMP-1 (Homo sapiens (Human), UniProt P03956); conditions: at 250 μM; data from Gooyit et al. 2014; cited from earlier work
[11] = molecular target: MMP-14 (Homo sapiens (Human), UniProt P50281); conditions: literature; cited from earlier work

Sequence of MMP-2 (P08253 110-660): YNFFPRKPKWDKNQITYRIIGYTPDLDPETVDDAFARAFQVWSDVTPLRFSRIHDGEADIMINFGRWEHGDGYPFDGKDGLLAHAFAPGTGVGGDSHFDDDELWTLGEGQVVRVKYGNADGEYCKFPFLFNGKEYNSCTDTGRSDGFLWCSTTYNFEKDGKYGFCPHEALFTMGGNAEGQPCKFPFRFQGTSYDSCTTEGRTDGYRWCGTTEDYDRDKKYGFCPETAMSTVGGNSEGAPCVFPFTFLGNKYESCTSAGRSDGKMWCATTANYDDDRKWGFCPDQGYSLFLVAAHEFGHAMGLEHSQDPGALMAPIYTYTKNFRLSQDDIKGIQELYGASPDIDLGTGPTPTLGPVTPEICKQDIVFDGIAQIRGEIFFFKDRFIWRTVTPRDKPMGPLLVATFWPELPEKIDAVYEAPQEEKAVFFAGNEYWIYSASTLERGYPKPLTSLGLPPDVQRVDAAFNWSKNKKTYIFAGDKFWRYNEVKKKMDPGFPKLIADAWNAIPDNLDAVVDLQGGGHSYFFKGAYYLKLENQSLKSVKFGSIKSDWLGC
Sequence of MMP-1 (P03956 98-276): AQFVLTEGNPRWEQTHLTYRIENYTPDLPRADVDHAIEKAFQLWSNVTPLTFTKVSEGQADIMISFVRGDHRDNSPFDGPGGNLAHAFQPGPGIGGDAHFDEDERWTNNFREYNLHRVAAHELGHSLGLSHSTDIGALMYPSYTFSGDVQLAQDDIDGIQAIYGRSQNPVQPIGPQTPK
Sequence of MMP-7 (P09237 95-267): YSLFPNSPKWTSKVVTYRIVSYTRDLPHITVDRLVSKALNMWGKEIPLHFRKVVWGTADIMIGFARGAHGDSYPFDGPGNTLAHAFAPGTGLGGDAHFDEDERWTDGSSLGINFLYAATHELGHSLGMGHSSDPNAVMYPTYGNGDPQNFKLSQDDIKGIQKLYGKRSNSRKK
Sequence of ADAM9 (Q13443 206-697): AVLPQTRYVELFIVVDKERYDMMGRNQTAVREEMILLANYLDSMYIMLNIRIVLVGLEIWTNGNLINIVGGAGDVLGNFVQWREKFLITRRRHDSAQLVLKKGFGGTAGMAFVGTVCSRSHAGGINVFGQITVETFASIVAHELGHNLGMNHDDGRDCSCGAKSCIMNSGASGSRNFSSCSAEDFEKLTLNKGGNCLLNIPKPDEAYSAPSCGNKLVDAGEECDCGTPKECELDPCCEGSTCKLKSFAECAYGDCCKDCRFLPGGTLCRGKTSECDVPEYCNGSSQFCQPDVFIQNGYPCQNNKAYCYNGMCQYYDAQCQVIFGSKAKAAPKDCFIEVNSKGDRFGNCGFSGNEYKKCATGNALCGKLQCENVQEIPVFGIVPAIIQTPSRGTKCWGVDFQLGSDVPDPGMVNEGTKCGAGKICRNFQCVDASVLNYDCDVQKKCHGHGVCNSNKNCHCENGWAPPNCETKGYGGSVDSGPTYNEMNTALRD
Sequence of ADAM10 (O14672 214-672): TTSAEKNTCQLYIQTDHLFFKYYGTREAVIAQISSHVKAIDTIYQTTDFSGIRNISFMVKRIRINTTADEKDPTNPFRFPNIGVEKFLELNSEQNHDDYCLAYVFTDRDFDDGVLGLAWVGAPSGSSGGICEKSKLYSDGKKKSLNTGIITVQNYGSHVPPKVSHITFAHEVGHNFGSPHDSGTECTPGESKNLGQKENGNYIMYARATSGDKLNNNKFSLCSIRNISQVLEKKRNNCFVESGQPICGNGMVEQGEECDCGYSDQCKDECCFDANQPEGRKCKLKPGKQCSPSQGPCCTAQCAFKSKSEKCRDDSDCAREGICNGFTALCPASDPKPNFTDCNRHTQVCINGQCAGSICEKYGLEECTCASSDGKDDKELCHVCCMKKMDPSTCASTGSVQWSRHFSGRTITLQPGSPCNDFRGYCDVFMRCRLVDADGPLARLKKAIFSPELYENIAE
Sequence of MMP-9 (P14780 107-444): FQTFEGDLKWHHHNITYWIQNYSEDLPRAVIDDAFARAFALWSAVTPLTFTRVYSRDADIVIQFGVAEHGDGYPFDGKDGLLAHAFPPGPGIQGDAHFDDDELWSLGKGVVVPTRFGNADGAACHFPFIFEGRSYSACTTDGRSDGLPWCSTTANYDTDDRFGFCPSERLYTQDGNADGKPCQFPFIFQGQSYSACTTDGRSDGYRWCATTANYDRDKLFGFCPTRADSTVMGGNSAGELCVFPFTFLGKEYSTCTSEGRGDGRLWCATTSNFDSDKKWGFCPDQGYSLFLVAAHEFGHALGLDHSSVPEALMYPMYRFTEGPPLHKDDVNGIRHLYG

Q: Which MMP-9 inhibition [1] does the source give for `CCNC(=O)Nc1ccc(Oc2ccc(S(=O)(=O)CC3CS3)cc2)cc1` (centres unmarked) [Compound 1x] here?
A: 28%

Q: What about the “residence time bound to MMP-2” value [2] of the same molecule?
A: 24.5 min

Q: And the “wound healing versus vehicle” value ([3]; in words)?
A: No significant differences

Q: What about the “wound healing versus vehicle” value ([3]; in words, listed as MMP-2 inhibitor) of the same molecule?
A: No differences were observed between the groups

Q: What about the re-epithelialization ([3]; H&E staining, day 14, in words) of the same molecule?
A: Partial re-epithelialization

Q: And the wound closure ([3]; day 7)?
A: 23±16%

Q: And the wound closure ([3]; day 10)?
A: 45±11%

Q: And the wound closure ([3]; day 14)?
A: 70±15%

Q: With `CNC(=O)[C@H](Cc1c[nH]c2ccccc12)NC(=O)[C@@H](CC(=O)NO)CC(C)C` [ilomastat] as the molecule, how does the “wound closure and epithelialization in non-diabetic wounds” value [4] read?
A: delayed wound closure and diminished epithelialization

Q: Which inhibition at 20 µM [5] does the source give for `Nc1ccc(Oc2ccc(S(=O)(=O)CC3CS3)cc2)cc1` (centres unmarked) [Compound 2] here?
A: 30%

Q: And the inhibition at 20 µM [6]?
A: 21%

Q: What about the Inhibition [7] of the same molecule?
A: 16%^i, j

Q: And the “healing of diabetic wounds” value ([3]; selective MMP-9 inhibition, in words)?
A: healed more rapidly

Q: What about the “effect on non-diabetic wounds” value [8] of the same molecule?
A: does not show any effect

Q: What about the solubility [9] of the same molecule?
A: 4900 µg/mL (≈ 15.2 mM)

Q: And the Inhibition [10]?
A: 10%^i, j

B1: TIMP-4: tissue inhibitor of metalloproteinase, protein inhibitor of MMPs (protein, UniProt Q99727 30-224, looked up)
Metalloproteinase inhibitor 4: CSCAPAHPQQHICHSALVIRAKISSEKVVPASADPADTEKMLRYEIKQIKMFKGFEKVKDVQYIYTPFDSSLCGVKLEANSQKQYLLTGQVLSDGKVFIHLCNYIEPWEDLSLVQRESLNHHYHLNCGCQITTCYTVPCTISAPNECLWTDWLLERKLYGYQAQHYVCMKHVDGTCSWYRGHLPLRKEFVDIVQP
Q: For B1, which “residence time bound to MMP-14” value [11] is on record?
A: 39 min
